Data taken from paper PMC5614969, “High-Affinity Functional Fluorescent Ligands for Human β-Adrenoceptors” (Scientific Reports, 2017).

Biological target: β1AR (Homo sapiens, UniProt P08588)
Assay: TR-FRET receptor-ligand saturation binding assay, Tag-lite β1AR cells
Details: 2 h at room temperature, read-out: Kd app
Method: To confirm whether the affinity of carazolol-KK114 (24) is sufficient for the intended imaging experiments and to evaluate its β2/β1AR selectivity, we performed a TR-FRET assay in Tag-lite β1AR or β2AR transfected cells (Cisbio) labeled with Tb^3+ cryptate (Lumi4-Tb) (Fig. 3c)[39]. […] (Fig. 3d, Supplementary Fig. 5b). The high affinities of both fluorescent ligands enabled the imaging experiments.
K d determination was performed on Tag-lite β1AR (Cisbio, Cat. No. C1TT1BETA1) or β2AR (Cisbio, Cat. No. C1TT1BETA2) Tb^3+ cryptate labeled transfected cells. The β1AR or β2AR cells labeled with SNAP-Terbium interact with the specific ligand labeled with the corresponding fluorophore. […] 20 µl of a fluorescent probe or control compound in Tag-lite buffer was added to each well and incubated for 2 h at room temperature (20 °C) before readout. FRET readout was performed on a multiwell plate reader Spark 20 M (Tecan) at room temperature. […] The ratio of the acceptor and donor emission signals was calculated for each individual well using equation (3):3 Ratio=Signal655nm−BackgroundSignal/Signal620nm−BackgroundSignal
Luminescence background signal was measured in wells containing 40 µl of Tag-lite buffer only. Specific binding was calculated by subtracting nonspecific binding ratio from total binding ratio at each fluorescent ligand concentration. […]

Chain of β1AR (P08588 whole entry): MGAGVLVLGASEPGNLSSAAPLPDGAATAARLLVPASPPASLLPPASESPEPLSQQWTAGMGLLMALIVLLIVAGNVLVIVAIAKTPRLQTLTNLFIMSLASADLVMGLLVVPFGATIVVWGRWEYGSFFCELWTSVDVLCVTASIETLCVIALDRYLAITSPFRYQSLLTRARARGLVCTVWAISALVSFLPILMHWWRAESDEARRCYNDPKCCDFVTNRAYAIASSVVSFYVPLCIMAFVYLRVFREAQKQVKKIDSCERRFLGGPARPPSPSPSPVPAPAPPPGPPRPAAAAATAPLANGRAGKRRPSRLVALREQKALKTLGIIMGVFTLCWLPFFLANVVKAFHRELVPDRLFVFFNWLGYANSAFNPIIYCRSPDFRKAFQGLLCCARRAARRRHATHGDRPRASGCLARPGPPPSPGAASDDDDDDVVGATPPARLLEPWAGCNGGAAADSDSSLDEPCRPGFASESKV

`Cc1c(CCC(=O)NCCOCCOCCNC(=O)CCN(C)C(=O)c2c(F)c(F)c(F)c(F)c2C2=c3cc4c5c(c3Oc3c2cc2c6c3CCCN6C(C)(C)C=C2CS(=O)(=O)O)CCC[N+]=5C(C)(C)C=C4CS(=O)(=O)[O-])cccc1CC(C)(C)NCC(O)c1ccc(O)c2c1OCC(=O)N2` (stereo not shown) [BI-PEG-KK114 (18)] gave a Kd of 63.4 ± 6.6 nM.
